Experimental findings from US5874442A, “Tricyclic amides useful for inhibition of G-protein function and for treatment of proliferative disease” (Schering-Plough Corporation, priority 1996, dated 1999) are described below.

In assay [1] the target is T1, farnesyl protein transferase (FPT) (Rattus norvegicus, UniProt Q02293+Q04631).
T1 construct: were partially purified from rat brain by ammonium sulfate fractionation; from tissue; host or cells: rat brain (ammonium sulfate fractionation, Q-Sepharose)
The assay is described as follows: In vitro enzyme assay: inhibition of farnesyl protein transferase (FPT), [3H]farnesyl transfer to Ras-CVLS. It is filed as biochemical. On the procedure: (§1) 1. In vitro enzyme assays:
(§2) Inhibition of farnesyl protein transferase and geranylgeranyl protein transferase.
Human farnesyl protein transferase was also expressed in E. coli, using cDNA clones encoding both the a and b subunits. […] Human farnesyl protein transferase was partially-purified from the soluble protein fraction of E. coli as described above. […] Two forms of val^12 -Ha-Ras protein were prepared as substrates for these enzymes, differing in their carboxy terminal sequence. One form terminated in cysteine-valine-leucine-serine (Ras-CVLS) the other in cystein-valine-leucine-leucine (Ras-CVLL). Ras-CVLS is a substrate for the farnesyl protein transferase while Ras-CVLL is a substrate for geranylgeranyl protein transferase I. The cDNAs encoding these proteins were constructed so that the proteins contain an amino-terminal extension of 6 histidine residues. Both proteins were expressed in Escherichia coli and purified using metal chelate affinity chromatography. The radiolabelled isoprenyl pyrophosphate substrates, [^3 H]farnesyl pyrophosphate and [^3 H] geranylgeranyl pyrophosphate, were purchased from DuPont/New England Nuclear.
The reaction was allowed to proceed for 30 minutes at room temperature and then stopped with 0.5 ml of 4% sodium dodecyl sulfate (SDS) followed by 0.5 ml of cold 30% TCA. Samples were allowed to sit on ice for 45 minutes and precipitated Ras protein was then collected on GF/C filter paper mats using a Brandel cell harvester. […] Percent inhibition was calculated relative to the DMSO vehicle control.

Assay [2] deals with T2, geranylgeranyl protein transferase (GGPT) I (Rattus norvegicus, UniProt P53610+Q04631).
T2 construct: were partially purified from rat brain by ammonium sulfate fractionation; from tissue; host or cells: rat brain (ammonium sulfate fractionation, Q-Sepharose)
T2 sequence (P53610 whole entry, one chain of several): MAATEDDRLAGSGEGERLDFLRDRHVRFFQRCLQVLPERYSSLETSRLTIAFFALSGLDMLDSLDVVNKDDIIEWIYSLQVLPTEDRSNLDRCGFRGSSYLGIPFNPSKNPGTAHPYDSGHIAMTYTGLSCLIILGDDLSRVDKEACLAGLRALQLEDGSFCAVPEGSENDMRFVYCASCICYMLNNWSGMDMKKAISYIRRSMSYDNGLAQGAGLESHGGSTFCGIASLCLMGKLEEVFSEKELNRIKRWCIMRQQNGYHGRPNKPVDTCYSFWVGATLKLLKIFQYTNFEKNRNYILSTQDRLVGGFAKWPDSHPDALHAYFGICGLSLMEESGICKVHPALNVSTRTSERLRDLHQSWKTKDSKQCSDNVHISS
Nature of the assay: In vitro enzyme assay: inhibition of geranylgeranyl protein transferase I (GGPT), Ras-CVLL as acceptor. It is filed as biochemical.
Description: as §1, §2
Both farnesyl protein transferase (FPT) and geranylgeranyl protein transferase (GGPT) I were partially purified from rat brain by ammonium sulfate fractionation followed by Q-Sepharose (Pharmacia, Inc.) anion exchange chromatography essentially as described by Yokoyama et al (Yokoyama, K., et al., (1991), A protein geranylgeranyltransferase from bovine brain: Implications for protein prenylation specificity, Proc. Natl. Acad. Sci USA 88: 5302-5306, the disclosure of which is incorporated herein by reference thereto). Human farnesyl protein transferase was also expressed in E. coli, using cDNA clones encoding both the a and b subunits. The methods used were similar to those published (Omer, C. et al., (1993), Characterization of recombinant human farnesyl protein transferase: Cloning, expression, farnesyl diphosphate binding, and functional homology with yeast prenyl-protein transferases, Biochemistry 32:5167-5176). Human farnesyl protein transferase was partially-purified from the soluble protein fraction of E. coli as described above. The tricyclic farnesyl protein transferase inhibitors disclosed herein inhibited both human and rat enzyme with similar potencies. […]

Assay [3] relates to Ras-CVLS processing in COS cells. The assay is described as follows: Cell-based COS cell assay: inhibition of Ras processing (Ras-CVLS). Also noted: species or system monkey. The conditions noted are these: Primates, COS. From the text: (§3) Transient expression of val^12 -Ha-Ras-CVLS and […] -Ha-Ras-CVLL in COS monkey kidney cells: Effect of farnesyl protein transferase inhibitors on Ras processing and on disordered cell growth induced by transforming Ras.
COS monkey kidney cells were transfected by electroporation with the plasmid pSV-SPORT (Gibco/BRL) containing a cDNA insert encoding either Ras-CVLS or Ras-CVLL, leading to transient overexpression of a Ras substrate for either farnesyl protein transferase or geranylgeranyl protein transferase I, respectively (see above).
Following electroporation, cells were plated into 6-well tissue culture dishes containing 1.5 ml of Dulbecco's-modified Eagle's media (GIBCO, Inc.) supplemented with 10% fetal calf serum and the appropriate farnesyl protein transferase inhibitors. After 24 hours, media was removed and fresh media containing the appropriate drugs was re-added.
48 hours after electroporation cells were examined under the microscope to monitor disordered cell growth induced by transforming Ras. Cells expressing transforming Ras become more rounded and refractile and overgrow the monolayer, reminiscent of the transformed phenotype. Cells were then photographed, washed twice with 1 ml of cold phosphate-buffered saline (PBS) and removed from the dish by scraping with a rubber policeman into 1 ml of a buffer containing 25 mM Tris, pH 8.0; 1 mM ethylenediamine tetraacetic acid; 1 mM phenylmethylsulfonyl fluoride; […]; and 0.1 mM pepstatin. Cells were lysed by homogenization and cell debris was removed by centrifugation at 2000× g for 10 min.
Cellular protein was precipitated by addition of ice-cold trichloroacetic acid and redissolved in […] of SDS-electrophoresis sample buffer. […] Proteins resolved on the gels were electroblotted onto nitrocellulose membranes for immunodetection.
After washing, membranes were incubated for one hour at room temperature with a 1:5000 dilution of secondary antibody, rabbit anti-rat lgG conjugated to horseradish peroxidase, in PBS containing 1% fetal calf serum. The presence of processed and unprocessed Ras-CVLS or Ras-CVLL was detected using a colorimetric peroxidase reagent (4-chloro-1-naphthol) as described by the manufacturer (Bio-Rad).

Assay [4] has as its system T24-BAG4 human bladder carcinoma cells expressing an activated H-ras gene. Nature of the assay: Cell mat assay, T24-BAG4 tumor cells. The conditions noted are these: Homo sapiens, 336 h, read-out: Tumor (T-24) IC50. It is filed as cell-based. On the procedure: (§4) Compound-induced colony inhibition was assayed by addition of serial dilutions of compound directly to the growth medium 24 h after tumor cell planting, and incubating cells for an additional 14 d to allow colony formation. Assays were terminated by rinsing monolayers twice with phosphate-buffered saline (PBS), fixing the monolayers with a 1% glutaraldehyde solution in PBS, then visualizing tumor cells by staining with X-Gal (Price, J., et al., Lineage analysis in the vertebrate nervous system by retrovirus-mediated gene transfer, Proc. Natl. Acad. Sci.84, 156-160(1987)). […] Both IC50 values were obtained by determining the density of tumor cells and mat cells by visual inspection and enumeration of cells per colony and the number of colonies under the microscope.

Assay [5] has as its system DLD-1-BAG human colon carcinoma cells. Nature of the assay: Cell mat assay, DLD-1-BAG tumor cells. It is filed as cell-based. The conditions noted are these: Homo sapiens, DLD-1, 336 h, read-out: Tumor (DLD-1) IC50. On the procedure: as §4
(§5) Additional assays were carried out by following essentially the same procedure as described above, but with substitution of alternative indicator tumor cell lines in place of the T24-BAG cells. The assays were conducted using either DLD-1-BAG human colon carcinoma cells expressing as activated K-ras gene or SW620-BAG human colon carcinoma cells expressing an activated K-ras gene.

In assay [6] the test system is SW620-BAG human colon carcinoma cells expressing an activated K-ras gene. Nature of the assay: Cell mat assay, SW620-BAG tumor cells. It is filed as cell-based. The conditions noted are these: Homo sapiens, SW-620, 336 h, read-out: Tumor (SW620) IC50, Mat assay, 14 d. On the procedure: as §4, §5
For assay [7], the system named is Normal human HEPM fibroblasts. Nature of the assay: Cell mat assay, normal cells (cell mat). The conditions noted are these: Homo sapiens, Fibroblast, 336 h, read-out: Normal IC50. It is filed as cell-based. The method, then: as §4
For a further assay, the system named is K ras NIH 3T3. The assay is described as follows: Soft agar assay. It is filed as cell-based. The conditions noted are these: Mus musculus, NIH3T3, read-out: IC50, inhibition of human tumor cell growth, soft agar.
Another assay deals with H ras NIH 3T3. The assay is described as follows: Soft agar assay. It is filed as cell-based. The conditions noted are these: Mus musculus, NIH3T3, read-out: IC50, inhibition of human tumor cell growth, soft agar.
For the next assay, the system named is A549. The assay is described as follows: Soft agar assay. It is filed as cell-based. The conditions noted are these: Homo sapiens; A549 (lung) K ras mutation; read-out: IC50, inhibition of human tumor cell growth, soft agar. On the procedure: (§6) Anchorage-independent growth is a characteristic of tumorigenic cell lines. Human tumor cells are suspended in growth medium containing 0.3% agarose and an indicated concentration of a farnesyl transferase inhibitor. The solution is overlayed onto growth medium solidified with 0.6% agarose containing the same concentration of farnesyl transferase inhibitor as the top layer. […] After incubation, the colonies are stained by overlaying the agar with a solution of MTT (3-[4,5-dimethylthiazol-2-yl]-2,5-diphenyltetrazolium bromide, Thiazolyl blue) (1 mg/mL in PBS). Colonies are counted and the IC50's determined.

The test system of another assay is HTB 175. Nature of the assay: Soft agar assay. The conditions noted are these: Homo sapiens; HTB 175 (SCLC) ras mut. not detected; read-out: IC50, inhibition of human tumor cell growth, soft agar. It is filed as cell-based. On the procedure:
as §6

Another assay has as its system HTB 177. Nature of the assay: Soft agar assay. The conditions noted are these: Homo sapiens; HTB 177 (NSCLC) K ras mutation; read-out: IC50, inhibition of human tumor cell growth, soft agar. It is filed as cell-based. The method, then:
as §6

Assay [8] concerns DLD-1 (human colon carcinoma cells). Nature of the assay: In vivo anti-tumor studies, subcutaneous DLD-1 tumors in athymic nu/nu mice. Also noted: species or system athymic nu/nu female mice. The conditions noted are these: Mus musculus, DLD-1, po, […], QID, 7 days per week for 4 weeks, read-out: Average % Tumor Inhibition; for inhibition in vivo at 50 mg/kg: 50 mg/kg p.o.; for inhibition in vivo at 10 mg/kg: 10 mg/kg p.o.
Description: Tumor bearing animals are selected and randomized when the tumors are established. Animals are treated with vehicle (β-cyclodextrin for i.p. or corn oil for p.o.) only or with a compound of the present invention in vehicle four times a day (QID) for 7 days per week for 4 weeks. The percent inhibition of tumor growth relative to vehicle controls is determined by tumor measurements.

For assay [9], the system named is geranylgeranylation of Ras-CVLL in COS cells. Nature of the assay: Cell-based COS cell assay: geranylgeranylation of Ras-CVLL. The conditions noted are these: at concentrations up to 33 μM. Also noted: species or system monkey.
Description: as §3
COS monkey kidney cells were transfected by electroporation with the plasmid pSV-SPORT (Gibco/BRL) containing a cDNA insert encoding either Ras-CVLS or Ras-CVLL, leading to transient overexpression of a Ras substrate for either farnesyl protein transferase or geranylgeranyl protein transferase I, respectively (see above). […]
Membranes were blocked by incubation overnight at 4° C. in PBS containing 2.5% dried milk and 0.5% Tween-20 and then incubated with a Ras-specific monoclonal antibody, Y13-259 (Furth, M. E., et al., (1982), Monoclonal antibodies to the p21 products of the transforming gene of Harvey murine sarcome virus and of the cellular ras gene family, J. Virol. 43:294-304), in PBS containing 1% fetal calf serum for one hour at room temperature. […] The presence of processed and unprocessed Ras-CVLS or Ras-CVLL was detected using a colorimetric peroxidase reagent (4-chloro-1-naphthol) as described by the manufacturer (Bio-Rad).

pIC50: −log10 of the molar value. Like-named read-outs stand apart in the source and are kept apart here.

Take `O=C(Cc1cc[n+]([O-])cc1)N1CCN(C2c3ccc(Cl)c(Br)c3CCc3cc(Br)cnc32)CC1` (racemic) [Example 5B]: the pIC50 in assay [1] is roughly 8.52; in assay [2], less than 3.52; in [3] (read-out: Inhibition of Ras Processing IC50, Table 3, COS cells), 7.30; in [4], greater than 5.80; in assay [5], 5.51; in [6] it was 5.00. The negative logarithm of the IC50 (pIC50) in assay [7] is less than 4.60.
For `NC(=O)N1CCC(CC(=O)N2CCC(C3c4ncc(Br)cc4CCc4cc(Cl)cc(Cl)c43)CC2)CC1` (single isomer, unassigned) [Example 18], the negative logarithm of the IC50 (pIC50) in the assay with K ras NIH 3T3 was 6.10; with H ras NIH 3T3, 6.76; with A549, 6.52; in the assay with HTB 175 it was 6.22; with HTB 177 it was 6.70. For the same compound, the inhibition in vivo at 50 mg/kg in assay [8] (Experiment No. 1) was found to be 73%. Moreover, in [8] (Experiment No. 2), the inhibition in vivo at 10 mg/kg is 43%.
Regarding `O=C(Cc1cc[n+]([O-])cc1)N1CCN(C2c3ncc(Br)cc3CCc3cccc(Cl)c32)CC1` (single isomer, unassigned) [Example 20], the pIC50 in assay [1] was 8.21; in [2], less than 4.42.
In the case of `O=C(Cc1cc[n+]([O-])cc1)N1CCC(=C2c3ccc(Cl)c(Br)c3CCc3cc(Br)cnc32)CC1` [Example 2], the negative-log IC50 (pIC50) in [3] (Table 3, COS cells, read-out: Inhibition of Ras Processing IC50) is 6.60. For the same compound, the “block of geranylgeranylation of Ras-CVLL” value in assay [9] was “did not block the geranylgeranylation of Ras-CVLL”. Further, the inhibition in vivo at 50 mg/kg was found to be 47% in assay [8] (Experiment No. 1) and 52.7% in assay [8] (Experiment No. 3). Moreover, the inhibition in vivo at 10 mg/kg in assay [8] (Experiment No. 2) came out at 25%; in [8] (Experiment No. 4), 31.9%.
Regarding `O=C(Cc1cc[n+]([O-])cc1)N1CCN([C@@H]2c3ccc(Cl)c(Br)c3CCc3cc(Br)cnc32)CC1` [Example 5A], the negative-log IC50 (pIC50) in assay [1] is less than 7.00; in assay [4], 4.90; in assay [5], 4.90; in assay [6] it was less than 4.60; in assay [7], less than 4.60.
